This passage reports Ki, IC50 and inhibition results from patent US8710233B2 (Gruenenthal GmbH, priority 2005, dated 2014).

What all share (format): cell-based
The target in test [1] is T1, vanilloid receptor 1 (VR1/TRPV1) of the rat species (Rattus norvegicus, UniProt O35433).
T1 construct: The spinal column is removed from decapitated rats; from tissue; host or cells: primary cells dissociated from rat dorsal root ganglia
The experiment in a line: FLIPR Ca2+ influx assay on rat dorsal root ganglia cells (pharmacological method I). In outline:
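Primary rat dorsal root ganglion cells loaded with 2 μM Fluo-4, Ca2+ influx read on FLIPR as peak fluorescence. Triplicates, at least 3 independent experiments.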

Test [2] concerns the target VR1/TRPV1 receptor (Homo sapiens, UniProt Q8NER1). The test is described as follows: IC50 (human) after pH stimulus. As to conditions: for inhibition at 25 µM / inhibition at 0.1 µM / inhibition at 1 µM / inhibition at 10 µM: read-out: inhibition in percent, IC50 (human) after pH stimulus; for inhibition at 1 µM: ne = no effect.
The target in test [3] is T2, vanilloid receptor (VR1) (Homo sapiens, UniProt Q8NER1).
T2 construct: expressed in transfected cells; host or cells: CHO K1 cells (ECACC), stably transfected
T2 sequence (Q8NER1 whole entry): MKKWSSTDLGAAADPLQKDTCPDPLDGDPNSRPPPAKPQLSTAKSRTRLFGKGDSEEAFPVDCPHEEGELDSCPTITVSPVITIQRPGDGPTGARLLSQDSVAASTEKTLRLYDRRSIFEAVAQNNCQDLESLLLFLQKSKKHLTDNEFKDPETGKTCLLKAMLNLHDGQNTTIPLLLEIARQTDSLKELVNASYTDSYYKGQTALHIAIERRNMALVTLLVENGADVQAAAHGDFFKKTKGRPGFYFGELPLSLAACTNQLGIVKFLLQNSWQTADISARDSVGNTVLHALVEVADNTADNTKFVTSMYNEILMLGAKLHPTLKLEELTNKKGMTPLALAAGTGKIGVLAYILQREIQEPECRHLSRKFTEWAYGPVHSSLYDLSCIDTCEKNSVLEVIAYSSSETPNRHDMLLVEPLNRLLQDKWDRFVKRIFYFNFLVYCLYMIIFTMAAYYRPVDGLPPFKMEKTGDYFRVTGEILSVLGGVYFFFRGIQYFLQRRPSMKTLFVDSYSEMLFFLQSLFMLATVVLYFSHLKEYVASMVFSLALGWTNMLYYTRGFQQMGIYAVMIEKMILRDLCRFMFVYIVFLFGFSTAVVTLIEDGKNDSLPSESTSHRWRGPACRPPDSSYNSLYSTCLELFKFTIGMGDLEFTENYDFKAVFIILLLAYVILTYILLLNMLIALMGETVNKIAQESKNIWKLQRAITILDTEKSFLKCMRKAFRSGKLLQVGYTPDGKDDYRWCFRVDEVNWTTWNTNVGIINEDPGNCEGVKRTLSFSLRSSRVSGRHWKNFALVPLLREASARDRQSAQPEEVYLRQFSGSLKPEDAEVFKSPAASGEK
The test is described as follows: FLIPR Ca2+ influx assay on CHO K1 cells transfected with the VR1 gene (pharmacological method II).

The mark [4] stands for this setting: table 4, capsaicin, read-out: Ki (rat) Cap.
Where [5] appears, read: table 4, capsaicin, read-out: Ki (human) Cap.
Where [6] appears, read: Ki (rat) Cap., table 4, capsaicin.
Setting [7] is: Table 2, displacement of capsaicin (100 nM), Cheng-Prusoff, read-out: Ki (human).
Setting [8] is: Table 2, displacement of capsaicin (100 nM), Cheng-Prusoff, read-out: Ki (rat).

Molecules are shown by their SMILES. Read-outs that look alike come from different tables or passages of the source.

Chain of VR1/TRPV1 receptor (Q8NER1 whole entry): as above
T1 sequence (O35433 whole entry): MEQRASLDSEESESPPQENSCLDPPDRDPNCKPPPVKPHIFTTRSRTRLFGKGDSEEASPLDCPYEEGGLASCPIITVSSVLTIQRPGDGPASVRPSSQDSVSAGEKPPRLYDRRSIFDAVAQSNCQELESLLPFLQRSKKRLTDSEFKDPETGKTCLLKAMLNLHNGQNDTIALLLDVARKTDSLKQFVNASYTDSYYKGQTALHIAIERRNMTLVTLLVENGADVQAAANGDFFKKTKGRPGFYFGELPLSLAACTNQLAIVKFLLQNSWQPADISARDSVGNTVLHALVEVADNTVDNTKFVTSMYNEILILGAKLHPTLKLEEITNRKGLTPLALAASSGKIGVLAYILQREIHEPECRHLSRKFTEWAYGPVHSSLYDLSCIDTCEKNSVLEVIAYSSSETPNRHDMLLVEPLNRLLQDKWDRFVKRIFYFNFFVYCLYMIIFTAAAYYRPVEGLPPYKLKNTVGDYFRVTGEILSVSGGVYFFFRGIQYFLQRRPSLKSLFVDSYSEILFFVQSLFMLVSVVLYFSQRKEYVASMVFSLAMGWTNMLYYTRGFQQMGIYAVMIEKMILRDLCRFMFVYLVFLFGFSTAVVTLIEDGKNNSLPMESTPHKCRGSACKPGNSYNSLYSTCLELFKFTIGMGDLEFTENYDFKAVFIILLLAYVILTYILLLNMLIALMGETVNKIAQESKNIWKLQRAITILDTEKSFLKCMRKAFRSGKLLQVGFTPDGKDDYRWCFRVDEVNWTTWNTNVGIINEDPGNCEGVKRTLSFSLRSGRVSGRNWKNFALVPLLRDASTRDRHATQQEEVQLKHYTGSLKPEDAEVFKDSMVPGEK

By Ki is commonly meant the equilibrium dissociation constant of an inhibitor or competing ligand from its target. A word on the IC50: it is the concentration needed to halve the response being measured. Low values mean inhibition by little substance, high ones a need for much substance. Consider `CC(C)CCCc1nc(C(F)(F)F)ccc1CNC(=O)C(C)c1ccc(NS(C)(=O)=O)c(F)c1` (centres unmarked) [Example 268, 2-(3-fluoro-4-methylsulfonamido-phenyl)-N-[2-(4-methyl-pentyl)-6-trifluoromethyl-pyridin-3-ylmethyl]-propionamide], for which the Ki in test [1] (setting [4]) was determined as 0.8 nM; in test [3] (setting [5]), 0.9 nM. Besides, inhibition in test [2] (table 4) was half-maximal at 17 nM (IC50).
The corresponding values for `CC(C(=O)NCc1ccc(C(F)(F)F)nc1N1CCC(C(F)(F)F)CC1)c1ccc(NS(C)(=O)=O)c(F)c1` (centres unmarked) [Example 190, N-(4,6′-bis-trifluoromethyl-3,4,5,6-tetrahydro-2H-[1,2′]bipyridinyl-3′-ylmethyl)-2-(3-fluoro-4-methylsulfonamido-phenyl)-propionamide] are 0.4 nM, 0.6 nM and 31 nM.
One may read the inhibition as how much of the control response was suppressed. With `CC(C(=O)NCc1ccc(C(F)(F)F)nc1)c1ccc(NS(C)(=O)=O)c(F)c1` (centres unmarked) [Example 215, 2-(3-fluoro-4-methylsulfonamido-phenyl)-N-(6-trifluoromethyl-pyridin-3-ylmethyl)-propionamide], the inhibition at 10 µM was 48% in test [1] (@ 10 μM, read-out: inhibition in percent, Ki (rat) Cap.) and 37% in test [3] (CHO-K1, @ 10 μM, read-out: inhibition in percent, Ki (human) Cap.). For the same molecule, the inhibition at 25 µM in test [2] was 15%.
In the case of `CC(C(=O)NCc1ccc(C(F)(F)F)nc1OCC1CCC1)c1ccc(NS(C)(=O)=O)c(F)c1` (centres unmarked) [Example 101, N-(2-cyclobutylmethoxy-6-trifluoromethyl-pyridin-3-ylmethyl)-2-(3-fluoro-4-methylsulfonamido-phenyl)-propionamide], the Ki came out at 1 nM in test [1] (setting [6]) and 0.3 nM in test [3] (setting [5]). Moreover, half-maximal inhibition in test [2] (table 4) (IC50) was put at 40.5 nM.
With `Cc1ccc(N2CCN(c3cc(C(F)(F)F)ccc3CNC(=O)C(C)c3ccc(NS(C)(=O)=O)c(F)c3)CC2)cc1` (centres unmarked) [Example 246, 2-(3-fluoro-4-methylsulfonamido-phenyl)-N-[2-(4-p-tolyl-piperazin-1-yl)-4-trifluoromethyl-benzyl]-propionamide], the Ki in test [1] (setting [4]) amounted to 0.5 nM; in test [3] (setting [5]), 0.7 nM. Half-maximal inhibition in test [2] (table 4) (IC50) was put at 87 nM.
For `CC(C(=O)NCc1ccc(C(F)(F)F)nc1N1CCC(C#N)(c2ccccc2)CC1)c1ccc(NS(C)(=O)=O)c(F)c1` (centres unmarked) [Example 285, N-(4-cyano-4-phenyl-6′-trifluoromethyl-3,4,5,6-tetrahydro-2H-[1,2′]bipyridinyl-3′-ylmethyl)-2-(3-fluoro-4-methylsulfonamido-phenyl)-propionamide], the figures for the Ki in test [1] (setting [4]) and in test [3] (setting [5]) were 4.5 nM and 3.5 nM, respectively. It took 377 nM to reach half-maximal inhibition in test [2] (table 4) (IC50).
For the molecule `CC(C)Oc1nc(C(F)(F)F)ccc1CNC(=O)C(C)c1ccc(NS(C)(=O)=O)c(F)c1` (centres unmarked) [Example 20, 2-(3-fluoro-4-(methylsulfonamido)phenyl)-N-((2-isopropoxy-6-(trifluoromethyl)pyridin-3-yl)methyl)propanamide], the Ki in test [1] (Ki (rat), Table 2, displacement of capsaicin (100 nM), Cheng-Prusoff) came to 5.4 nM; in test [3] (setting [7]), 2.1 nM. In test [2] (Table 2), this molecule gave an IC50 of 93 nM.
`Cc1cccc(N2CCN(c3cc(C(F)(F)F)ccc3CNC(=O)C(C)c3ccc(NS(C)(=O)=O)c(F)c3)CC2)c1` (centres unmarked) [Example 247, 2-(3-fluoro-4-methylsulfonamido-phenyl)-N-[2-(4-m-tolyl-piperazin-1-yl)-4-trifluoromethyl-benzyl]-propionamide]: the Ki in test [1] (setting [4]) was found to be 0.5 nM. In test [2], the inhibition at 0.1 µM was 36% and the inhibition at 1 µM is 69%. Also, the Ki in test [3] (setting [5]) was 1.8 nM.
Take `CC(C(=O)NCc1ccc(C(F)(F)F)nc1-c1ccc(Cl)c(Cl)c1)c1ccc(NS(C)(=O)=O)c(F)c1` (centres unmarked) [Example 250, N-[2-(3,4-dichloro-phenyl)-6-trifluoromethyl-pyridin-3-ylmethyl]-2-(3-fluoro-4-methylsulfonamido-phenyl)-propionamide]: the Ki in test [1] (setting [4]) was 0.9 nM. In test [2], the inhibition at 1 µM is 51% and the inhibition at 10 µM amounted to 68%. In addition, the Ki in test [3] (setting [5]) was found to be 0.9 nM.
As to `CC(C(=O)NCc1ccc(C(C)(C)C)nc1N1CCCC1)c1ccc(NS(C)(=O)=O)c(F)c1` (centres unmarked) [Example 240, N-(6-tert-butyl-2-pyrrolidin-1-yl-pyridin-3-ylmethyl)-2-(3-fluoro-4-methansulfonylamino-phenyl)-propionamide], the Ki in test [1] (setting [4]) worked out at 5.3 nM. In addition, in test [2], the inhibition at 0.1 µM worked out at 12% and the inhibition at 1 µM was 43%. For the same molecule, the Ki in test [3] (setting [5]) was determined as 1.2 nM.
For `CC(C(=O)NCc1ccc(C(F)(F)F)cc1N1CCC(c2ccc(F)cc2)CC1)c1ccc(NS(C)(=O)=O)c(F)c1` (centres unmarked) [Example 255, 2-(3-fluoro-4-methylsulfonamido-phenyl)-N-{2-[4-(4-fluoro-phenyl)-piperidin-1-yl]-4-trifluoromethyl-benzyl}-propionamide], the Ki in test [1] (setting [4]) was 1.3 nM; in test [3] (setting [5]), 0.9 nM. The molecule also registered an IC50 in test [2] (table 4) of 101 nM.
For `Cc1cc(C(C)C(=O)NCc2ccc(C(F)(F)F)nc2OCc2ccccc2)ccc1NS(C)(=O)=O` (centres unmarked) [Example 204, N-(2-benzyloxy-6-trifluoromethyl-pyridin-3-ylmethyl)-2-(4-methylsulfonamido-3-methyl-phenyl)-propionamide], the Ki worked out at 1.6 nM in test [1] (setting [4]) and 4 nM in test [3] (setting [5]). Further, half-maximal inhibition in test [2] (table 4) (IC50) was put at 148 nM.
In the case of `C[C@H](C(=O)NCc1ccc(C(F)(F)F)cc1N1CCCCC1)c1ccc(NS(C)(=O)=O)c(F)c1` [Example 31, (S)-2-(3-fluoro-4-(methylsulfonamido)phenyl)-N-(2-(piperidin-1-yl)-4-(trifluoromethyl)benzyl)propanamide], the results for the Ki in test [1] (setting [8]) and in test [3] (setting [7]) were 0.5 nM and 0.6 nM, respectively. The same molecule gave an IC50 in test [2] (Table 2) of 50 nM.
On to `CC(C(=O)NCc1ccc(C(F)(F)F)nc1N1CCN(C)CC1)c1ccc(NS(C)(=O)=O)c(F)c1` (centres unmarked) [Example 134, 2-(3-fluoro-4-methylsulfonamido-phenyl)-N-[2-(4-methyl-piperazin-1-yl)-6-trifluoromethyl-pyridin-3-ylmethyl]-propionamide], for which the results for the Ki in test [1] (setting [4]) and in test [3] (setting [5]) were 335 nM and 146 nM, respectively. In addition, the inhibition at 25 µM in test [2] was found to be 69%.
`CC(C(=O)NCc1ccc(C(F)(F)F)nc1OCc1cccnc1)c1ccc(NS(C)(=O)=O)c(F)c1` (centres unmarked) [Example 211, 2-(3-fluoro-4-methylsulfonamido-phenyl)-N-[2-(pyridin-3-ylmethoxy)-6-trifluoromethyl-pyridin-3-ylmethyl]-propionamide]: the Ki in test [1] (setting [4]) was determined as 30.3 nM; in test [3] (setting [5]), 142 nM. Inhibition in test [2] (table 4) was half-maximal at 3440 nM (IC50).
With `CC(C(=O)NCc1ccc(C(F)(F)F)cc1Cl)c1ccc(NS(C)(=O)=O)c(F)c1` (centres unmarked) [Example 75, N-(2-chloro-4-(trifluoromethyl)benzyl)-2-(3-fluoro-4-(methylsulfonamido)phenyl)propanamide], the figures for the Ki in test [1] (setting [8]) and in test [3] (setting [7]) were 12.9 nM and 4 nM, respectively. This molecule also returned an IC50 in test [2] (Table 2) of 1210 nM.
Take `CC1CCN(c2nc(C(C)(C)C)ccc2CNC(=O)C(C)c2ccc(NS(C)(=O)=O)c(F)c2)CC1` (centres unmarked) [Example 241, N-(6′-tert-butyl-4-methyl-3,4,5,6-tetrahydro-2H-[1,2′]bipyridinyl-3′-ylmethyl)-2-(3-fluoro-4-methylsulfonamido-phenyl)-propionamide]: the Ki in test [1] (setting [4]) was 0.5 nM. In test [2], the inhibition at 0.1 µM amounted to 34% and the inhibition at 1 µM amounted to 79%. In addition, in test [3] (setting [5]), the Ki turned out to be 1.9 nM.
For the molecule `CCC1CCN(c2nc(C(F)(F)F)ccc2CNC(=O)C(C)c2ccc(NS(C)(=O)=O)c(F)c2)CC1` (centres unmarked) [Example 197, N-(4-ethyl-6′-trifluoromethyl-3,4,5,6-tetrahydro-2H-[1,2′]bipyridinyl-3′-ylmethyl)-2-(3-fluoro-4-methylsulfonamido-phenyl)-propionamide], the Ki in test [1] (setting [4]) worked out at 0.4 nM; in test [3] (setting [5]) it was 1.5 nM. In addition, 97.3 nM corresponded to half-maximal inhibition in test [2] (table 4) (IC50).
Turning to `CC(C(=O)NCc1ccc(C(F)(F)F)cc1N1CCN(c2ccc(C(F)(F)F)cc2)CC1)c1ccc(NS(C)(=O)=O)c(F)c1` (centres unmarked) [Example 248, 2-(3-fluoro-4-methylsulfonamido-phenyl)-N-{4-trifluoromethyl-2-[4-(4-trifluoromethyl-phenyl)-piperazin-1-yl]-benzyl}-propionamide], the Ki in test [1] (setting [4]) was 0.9 nM. Also, in test [2], the inhibition at 10 µM was determined as 66% and the inhibition at 25 µM is 74%. In test [3] (setting [5]), the Ki turned out to be 3.9 nM.
Regarding `CC(C(=O)NCc1ccc(C(F)(F)F)nc1CCc1ccccc1)c1ccc(NS(C)(=O)=O)c(F)c1` (centres unmarked) [Example 192, 2-(3-fluoro-4-methylsulfonamido-phenyl)-N-(2-phenethyl-6-trifluoromethyl-pyridin-3-ylmethyl)-propionamide], the Ki is 2.4 nM in test [1] (setting [4]) and 1.4 nM in test [3] (setting [5]). The same molecule gave an IC50 in test [2] (table 4) of 47 nM.
As for `CC1CCC(Oc2nc(C(F)(F)F)ccc2CNC(=O)C(C)c2ccc(NS(C)(=O)=O)c(F)c2)CC1` (centres unmarked) [Example 157, 2-(3-fluoro-4-methylsulfonamido-phenyl)-N-[2-(4-methyl-cyclohexyloxy)-6-trifluoromethyl-pyridin-3-ylmethyl]-propionamide], the inhibitory constant (Ki) in test [1] (setting [6]) worked out at 1.3 nM; in test [3] (setting [5]) it was 2.9 nM. In test [2] (table 4), the half-maximal inhibitory concentration (IC50) is 43.1 nM.
